Holding throughout (type): ADME, cell-based
Data set [1] is described as follows: Increase in accumulation of the drug in CEM CCL19 cells in presence of 50 uM Dipyridamole relative to control. The conditions noted are these: human, ccrf-cem.
The nature of data set [2]: Increase in accumulation of the drug in CEM CCL19 cells in presence of 50 uM Probenecid relative to control. The note with it: human, ccrf-cem.
A short description of data set [3]: Decrease in accumulation of the drug in CEM CCL19 cells in presence of 28 uM Nevirapine relative to control. More on the design: scale not given: the % may be the effect or the level left. The note with it: human, ccrf-cem.
Data set [4] deals with PBMC. Nature of the data set: Ratio of intracellular drug level to extracellular drug level in human PBMC at 2 ug/ml after 24 hrs.
Data set [5] can be described thus: Ratio of intracellular drug level to extracellular drug level in CEM CCL19 cells at 0.2 ug/ml after 24 hrs. The note with it: human, ccrf-cem.
Data set [6] deals with PBMC. In words: Intracellular drug level in human PBMC at 0.2 ug/ml after 24 hrs.
For data set [7], the system named is PBMC. In words: Intracellular drug level in human PBMC at 2 ug/ml after 24 hrs.
Data set [8] in a line: Intracellular drug level in CEM CCL19 cells at 2 ug/ml after 24 hrs. The note with it: human, ccrf-cem.
For data set [9], the system named is PBMC. Nature of the data set: Ratio of intracellular drug level to extracellular drug level in human PBMC at 20 ug/ml after 24 hrs.
The test system of data set [10] is PBMC. In words: Ratio of intracellular drug level to extracellular drug level in human PBMC at 0.2 ug/ml after 24 hrs.
Data set [11] in a line: Intracellular drug level in CEM CCL19 cells at 0.2 ug/ml after 24 hrs. The conditions noted are these: human, ccrf-cem.
A short description of data set [12]: Ratio of intracellular drug level to extracellular drug level in CEM CCL19 cells at 20 ug/ml after 24 hrs. The note with it: human, ccrf-cem.
Data set [13] has as its system PBMC. In words: Intracellular drug level in human PBMC at 20 ug/ml after 24 hrs.
A short description of data set [14]: Increase in accumulation of the drug in CEM CCL19 cells in presence of 24 uM Efavirenz relative to control. The note with it: human, ccrf-cem.
Data set [15] is described as follows: Ratio of intracellular drug level to extracellular drug level in CEM CCL19 cells at 2 ug/ml after 24 hrs. The note with it: human, ccrf-cem.
Data set [16] is described as follows: Intracellular drug level in CEM CCL19 cells at 20 ug/ml after 24 hrs. The conditions noted are these: human, ccrf-cem.
Data set [17] in a line: Increase in accumulation of the drug in CEM CCL19 cells in presence of 50 uM Verapamil relative to control. The conditions noted are these: human, ccrf-cem.

Drawing on ChEMBL document CHEMBL1142181, “Quantitative immunoassay to measure plasma and intracellular atazanavir levels: analysis of drug accumulation in cultured T cells” (Antimicrob Agents Chemother, 2007), this text covers Activity, Ratio and Drug uptake for 1 compound.

Molecules are shown by their SMILES.

With `COC(=O)N[C@H](C(=O)N[C@@H](Cc1ccccc1)[C@@H](O)CN(Cc1ccc(-c2ccccn2)cc1)NC(=O)[C@@H](NC(=O)OC)C(C)(C)C)C(C)(C)C` [ATAZANAVIR], the Activity in [1] stood at 125%; in data set [2], 25%; in data set [3] it was 50%; in data set [14], 125%; in [17], 70%. In addition, the Ratio in data set [4] came out at 2.7; in data set [5] it was 0.44; in data set [9] it was 0.602; in [10], 19.2; in data set [12], 0.04; in data set [15], 0.1. The Drug uptake came to 3.838 µg/mL in data set [6]; 5.409 µg/mL in [7]; 0.2049 µg/mL in data set [8]; 0.0887 µg/mL in data set [11]; 12.048 µg/mL in data set [13]; 0.8423 µg/mL in data set [16].
